Test results published in patent publication US20230372364A1, “METHOD OF TREATING GABA MEDIATED DISORDERS” (Eliem Therapeutics (UK) Ltd, priority 2020, published 2023).
Read-outs that look alike come from different tables or passages of the source.

Columns and labels:
[1] = system: rodent model of depression; assay: Forced swim test - Depression; format: in vivo; details: all doses listed in the cell
human subjects = details: cited from earlier work
[2] = human, cited from earlier work
[3] = human, cited from earlier work; remark: listed apart in the source
[4] = 30 mg, day 7 MAD (MTD), morning dosing

C[C@@]1(O)CC[C@H]2[C@H](CC[C@@H]3[C@@H]2CC[C@]2(C)[C@@H](C(=O)Cn4cc(C#N)cn4)CC[C@@H]32)C1 [Sage-217, zuranolone]
Doses in Forced swim test - Depression, * = significantly efficacious dose [1]: 1 - 3* mg/kg | Any adverse event, (%) (human subjects; 20 mg, n-188): (50.0) % | Diarrhea, (%) (human subjects; 20 mg, n-188): (5.9) % | Dizziness, (%) (human subjects; 20 mg, n-188): (7.4) % | Fatigue, (%) (human subjects; 20 mg, n-188): (1.6) % | Headache, (%) (human subjects; 20 mg, n-188): (11.2) % | Nausea, (%) (human subjects; 20 mg, n-188): (5.3) % | Sedation, (%) (human subjects; 20 mg, n-188): (5.9) % | Somnolence, (%) (human subjects; 20 mg, n-188): (5.9) % | Any adverse event, (%) (human subjects; 30 mg, n-192): (54.2) % | Diarrhea, (%) (human subjects; 30 mg, n-192): (6.3) % | Dizziness, (%) (human subjects; 30 mg, n-192): (5.7) % | Fatigue, (%) (human subjects; 30 mg, n-192): (6.8) % | Headache, (%) (human subjects; 30 mg, n-192): (6.3) % | Nausea, (%) (human subjects; 30 mg, n-192): (3.6) % | Sedation, (%) (human subjects; 30 mg, n-192): (4.7) % | Somnolence, (%) (human subjects; 30 mg, n-192): (6.8) % | Tmax ([2]; 55 mg SAD MTD): 1.24 h | SAD MTD ([2]; single ascending dose): SAGE-217 55 mg SAD MTD | ratio of Cmax/trough on day 7 ([3]; 30 mg daily in the evening in a fed state): 5.88 | AUC0-inf [3, 4]: 833.2 ng·h/mL | Cmin [3, 4]: 12.46 ng/mL | Ratio (Cmax/Cmin) [3, 4]: 9.24 | MAD MTD ([3]; multiple ascending dose): SAGE-217 30 mg
